Measurements taken from article PMC9756784 (Journal of Mass Spectrometry and Advances in the Clinical …, 2022).
Where two headings read alike, the source gives them in different places.

Columns and labels:
[1] = plasma
[2] = for Relative stability in whole blood and plasma: whole blood versus plasma; for Length of time for which stability is assumed: whole blood
[3] = format: physicochemical; conditions: −80 °C

SMILES | Length of time for which stability is assumed ([1]; 4°C) | Relative stability in whole blood and plasma [2] | Length of time for which stability is assumed ([2]; 4°C) | Length of time for which stability is assumed ([2]; RT (room temperature)) | Length of time for which stability is assumed ([1]; RT (room temperature)) | Length of time for which stability is assumed ([1]; −20°C, W = week) | Length of time for which stability is assumed ([1]; −80°C, M = month) | Stock solution stable for up to [3]
CC(C)(O/N=C(\C(=O)N[C@@H]1C(=O)N2C(C(=O)[O-])=C(C[n+]3ccccc3)CS[C@H]12)c1csc(N)n1)C(=O)O [Ceftazidime, ceftazidime] | 8h 4 °C | – | – | – | – | – | – | –
C[C@]1(Cn2ccnn2)[C@H](C(=O)O)N2C(=O)C[C@H]2S1(=O)=O [Tazobactam, tazobactam] | 24h 4 °C | more stable in whole blood than in plasma | 48h 4 °C | 24h RT | 8h RT | 1W−20 °C | – | –
CO/N=C(\C(=O)N[C@@H]1C(=O)N2C(C(=O)[O-])=C(C[N+]3(C)CCCC3)CS[C@H]12)c1csc(N)n1 [Cefepime, cefepime] | 8h 4 °C | – | 48h 4 °C | 24h RT | 5h RT | 1W−20 °C | 8M−80 °C | –
CC(=O)NC[C@H]1CN(c2ccc(N3CCOCC3)c(F)c2)C(=O)O1 [Linezolid, linezolid] | 48h 4 °C | stable in both matrices | 48h 4 °C | 24h RT | 24h RT | 2W−20 °C | 8M−80 °C | 20 months
C[C@@H](O)[C@H]1C(=O)N2C(C(=O)O)=C(S[C@@H]3CN[C@H](C(=O)N(C)C)C3)[C@H](C)[C@H]12 [Meropenem, meropenem] | 24h 4 °C | more stable in whole blood than in plasma | 48h 4 °C | 8h RT | 8h RT | 1W−20 °C | 8M−80 °C | –
Cc1nnc(SCC2=C(C(=O)O)N3C(=O)[C@@H](NC(=O)Cn4cnnn4)[C@H]3SC2)s1 [Cefazolin, cefazolin] | 48h 4 °C | stable in both matrices | 48h 4 °C | 24h RT | 24h RT | 2W−20 °C | 8M−80 °C | –
CCN1CCN(C(=O)N[C@@H](C(=O)N[C@@H]2C(=O)N3[C@@H]2SC(C)(C)[C@@H]3C(=O)O)c2ccccc2)C(=O)C1=O [Piperacillin, piperacillin] | 24h 4 °C | – | 48h 4 °C | 24h RT | 5h RT | 1W−20 °C | – | –
Cc1onc(-c2c(F)cccc2Cl)c1C(=O)N[C@@H]1C(=O)N2[C@@H]1SC(C)(C)[C@@H]2C(=O)O [Flucloxacillin, flucloxacillin] | 24h 4 °C | more stable in plasma | 8h 4 °C | 8h RT | 8h RT | 2W−20 °C | 8M−80 °C | –
CO/N=C(\C(=O)N[C@@H]1C(=O)N2C(C(=O)O)=C(COC(C)=O)CS[C@H]12)c1csc(N)n1 [Cefotaxime, cefotaxime] | 48h 4 °C | – | 48h 4 °C | 24h RT | 8h RT | – | 8M−80 °C | –
